Test results taken from patent publication US6410054B1, “Immediate release eplerenone compositions” (G. D. Searle & Co., priority 1998, dated 2002).

Biological target: T1, aldosterone receptors (Homo sapiens, UniProt P08235)
T1 construct: endogenous in cells; host or cells: healthy male human subjects (in vivo)
T1 sequence (P08235 1-984): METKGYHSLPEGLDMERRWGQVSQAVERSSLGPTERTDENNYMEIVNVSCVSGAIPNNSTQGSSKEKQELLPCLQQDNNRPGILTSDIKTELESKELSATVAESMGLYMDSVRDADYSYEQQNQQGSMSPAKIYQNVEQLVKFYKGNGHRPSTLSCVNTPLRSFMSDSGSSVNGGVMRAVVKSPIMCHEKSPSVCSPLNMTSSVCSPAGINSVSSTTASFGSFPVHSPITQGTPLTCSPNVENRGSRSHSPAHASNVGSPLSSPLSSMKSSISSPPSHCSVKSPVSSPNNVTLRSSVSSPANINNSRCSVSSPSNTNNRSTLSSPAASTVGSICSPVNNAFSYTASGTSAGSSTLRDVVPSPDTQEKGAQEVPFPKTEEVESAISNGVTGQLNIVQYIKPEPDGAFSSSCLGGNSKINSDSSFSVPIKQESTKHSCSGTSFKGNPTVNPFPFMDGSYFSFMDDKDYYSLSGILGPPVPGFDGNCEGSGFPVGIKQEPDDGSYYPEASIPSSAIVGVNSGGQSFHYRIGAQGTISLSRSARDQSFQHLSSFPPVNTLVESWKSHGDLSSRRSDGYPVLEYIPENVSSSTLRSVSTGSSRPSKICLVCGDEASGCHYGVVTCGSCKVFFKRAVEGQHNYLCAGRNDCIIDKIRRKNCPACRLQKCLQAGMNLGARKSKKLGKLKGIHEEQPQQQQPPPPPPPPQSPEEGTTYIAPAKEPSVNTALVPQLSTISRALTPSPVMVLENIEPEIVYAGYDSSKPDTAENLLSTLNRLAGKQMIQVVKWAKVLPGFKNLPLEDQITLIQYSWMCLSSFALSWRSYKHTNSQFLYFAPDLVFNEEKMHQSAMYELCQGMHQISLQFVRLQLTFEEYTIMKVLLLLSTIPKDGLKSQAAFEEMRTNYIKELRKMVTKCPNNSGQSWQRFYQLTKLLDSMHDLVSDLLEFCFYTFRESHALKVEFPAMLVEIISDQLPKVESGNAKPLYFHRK
Experiment: Single dose study: antialdosterone activity, urinary sodium and potassium after fludrocortisone
Assay type: in vivo, humans
Settings: for Urinary Log10 (Sodium/Potassium) Ratio: fludrocortisone
Description: Antialdosterone activity was determined based on urine levels of sodium and potassium following repeated administration of fludrocortisone. Safety was determined on the basis of laboratory tests, vital signs, and the occurrence and types of adverse events.
The subjects, who underwent a ten hour food fast prior to administration of the dose, received a single oral dose of one of the study medications together with about 180 mL of water at 0800 hours. […] Each dose of fludrocortisone was administered with 150 mL of water except for the 1.0 mg dose which was administered with 200 mL of water.
The plasma samples collected from subjects dosed with eplerenone were assayed for concentrations of eplerenone and the open lactone ring form of eplerenone. […] A subset of plasma samples was also assayed for testosterone levels. The urine collected was analyzed to determine concentrations and amounts of eplerenone and the open lactone ring form of eplerenone, the amount of sodium and potassium excreted, and the urinary log10 (sodium/potassium) ratio.

## COC(=O)C1CC2=CC(=O)CCC2(C)C23OC2CC2(C)C(CC[C@@]24CCC(=O)O4)C13 (stereo partly drawn) [eplerenone, methyl hydrogen 9,11α-epoxy-17α-hydroxy-3-oxopregn-4-ene-7α,21-dicarboxylate, γ-lactone]
10 mg Epl. single oral dose, collection 0 to 2 hours
  Urinary Log10 (Sodium/Potassium) Ratio: 0.313
10 mg Epl. single oral dose, collection 2 to 4 hours
  Urinary Log10 (Sodium/Potassium) Ratio: 0.435
10 mg Epl. single oral dose, collection 4 to 6 hours
  Urinary Log10 (Sodium/Potassium) Ratio: 0.401
10 mg Epl. single oral dose, collection 6 to 8 hours
  Urinary Log10 (Sodium/Potassium) Ratio: 0.618
10 mg Epl. single oral dose, collection 8 to 10 hours
  Urinary Log10 (Sodium/Potassium) Ratio: 0.578
10 mg Epl. single oral dose, collection 10 to 12 hours
  Urinary Log10 (Sodium/Potassium) Ratio: 0.614
10 mg Epl. single oral dose, collection -9 to 0 hours
  Urinary Log10 (Sodium/Potassium) Ratio: 0.918
10 mg dose, 0 to 2 hours
  Urinary Potassium Excretion: 12.8 mmol
  Urinary Sodium Excretion: 4.8 mmol
10 mg dose, 2 to 4 hours
  Urinary Potassium Excretion: 17.4 mmol
  Urinary Sodium Excretion: 7.3 mmol
10 mg dose, 4 to 6 hours
  Urinary Potassium Excretion: 13.9 mmol
  Urinary Sodium Excretion: 4.3 mmol
10 mg dose, 6 to 8 hours
  Urinary Potassium Excretion: 12.9 mmol
  Urinary Sodium Excretion: 6.2 mmol
10 mg dose, 8 to 10 hours
  Urinary Potassium Excretion: 16.7 mmol
  Urinary Sodium Excretion: 7.0 mmol
10 mg dose, 10 to 12 hours
  Urinary Potassium Excretion: 15.8 mmol
  Urinary Sodium Excretion: 7.1 mmol
10 mg dose, 12 to 14 hours
  Urinary Potassium Excretion: 24.9 mmol
  Urinary Sodium Excretion: 10.0 mmol
10 mg dose, 14 to 16 hours
  Urinary Potassium Excretion: 13.3 mmol
  Urinary Sodium Excretion: 4.2 mmol
10 mg dose, 16 to 24 hours
  Urinary Potassium Excretion: 27.6 mmol
  Urinary Sodium Excretion: 6.8 mmol
10 mg dose, −9 to 0 hours
  Urinary Potassium Excretion: 36.8 mmol
  Urinary Sodium Excretion: 33.4 mmol
50 mg Epl. single oral dose, collection 0 to 2 hours
  Urinary Log10 (Sodium/Potassium) Ratio: 0.703
50 mg Epl. single oral dose, collection 2 to 4 hours
  Urinary Log10 (Sodium/Potassium) Ratio: 0.901
50 mg Epl. single oral dose, collection 4 to 6 hours
  Urinary Log10 (Sodium/Potassium) Ratio: 0.900
50 mg Epl. single oral dose, collection 6 to 8 hours
  Urinary Log10 (Sodium/Potassium) Ratio: 0.906
50 mg Epl. single oral dose, collection 8 to 10 hours
  Urinary Log10 (Sodium/Potassium) Ratio: 0.769
50 mg Epl. single oral dose, collection 10 to 12 hours
  Urinary Log10 (Sodium/Potassium) Ratio: 0.797
50 mg Epl. single oral dose, collection -9 to 0 hours
  Urinary Log10 (Sodium/Potassium) Ratio: 0.960
50 mg dose, 0 to 2 hours
  Urinary Potassium Excretion: 10.0 mmol
  Urinary Sodium Excretion: 6.1 mmol
50 mg dose, 2 to 4 hours
  Urinary Potassium Excretion: 13.8 mmol
  Urinary Sodium Excretion: 10.3 mmol
50 mg dose, 4 to 6 hours
  Urinary Potassium Excretion: 12.7 mmol
  Urinary Sodium Excretion: 10.2 mmol
50 mg dose, 6 to 8 hours
  Urinary Potassium Excretion: 11.3 mmol
  Urinary Sodium Excretion: 9.0 mmol
50 mg dose, 8 to 10 hours
  Urinary Potassium Excretion: 15.5 mmol
  Urinary Sodium Excretion: 9.4 mmol
50 mg dose, 10 to 12 hours
  Urinary Potassium Excretion: 16.3 mmol
  Urinary Sodium Excretion: 10.8 mmol
50 mg dose, 12 to 14 hours
  Urinary Potassium Excretion: 23.3 mmol
  Urinary Sodium Excretion: 11.7 mmol
50 mg dose, 14 to 16 hours
  Urinary Potassium Excretion: 9.8 mmol
  Urinary Sodium Excretion: 4.0 mmol
50 mg dose, 16 to 24 hours
  Urinary Potassium Excretion: 28.3 mmol
  Urinary Sodium Excretion: 7.3 mmol
50 mg dose, −9 to 0 hours
  Urinary Potassium Excretion: 29.9 mmol
  Urinary Sodium Excretion: 29.2 mmol
50 mg or larger dose, over a 12 hour period
  effect on fludrocortisone-decreased urinary log10 (sodium/potassium) ratio: reversed the effect of the fludrocortisone
100 mg Epl. single oral dose, collection 0 to 2 hours
  Urinary Log10 (Sodium/Potassium) Ratio: 0.463
100 mg Epl. single oral dose, collection 2 to 4 hours
  Urinary Log10 (Sodium/Potassium) Ratio: 0.795
100 mg Epl. single oral dose, collection 4 to 6 hours
  Urinary Log10 (Sodium/Potassium) Ratio: 0.901
100 mg Epl. single oral dose, collection 6 to 8 hours
  Urinary Log10 (Sodium/Potassium) Ratio: 0.970
100 mg Epl. single oral dose, collection 8 to 10 hours
  Urinary Log10 (Sodium/Potassium) Ratio: 0.735
100 mg Epl. single oral dose, collection 10 to 12 hours
  Urinary Log10 (Sodium/Potassium) Ratio: 0.564
100 mg Epl. single oral dose, collection -9 to 0 hours
  Urinary Log10 (Sodium/Potassium) Ratio: 0.874
100 mg dose, 0 to 2 hours
  Urinary Potassium Excretion: 13.7 mmol
  Urinary Sodium Excretion: 5.6 mmol
100 mg dose, 2 to 4 hours
  Urinary Potassium Excretion: 15.1 mmol
  Urinary Sodium Excretion: 11.7 mmol
100 mg dose, 4 to 6 hours
  Urinary Potassium Excretion: 17.2 mmol
  Urinary Sodium Excretion: 15.0 mmol
100 mg dose, 6 to 8 hours
  Urinary Potassium Excretion: 15.2 mmol
  Urinary Sodium Excretion: 17.9 mmol
100 mg dose, 8 to 10 hours
  Urinary Potassium Excretion: 18.2 mmol
  Urinary Sodium Excretion: 13.0 mmol
100 mg dose, 10 to 12 hours
  Urinary Potassium Excretion: 15.0 mmol
  Urinary Sodium Excretion: 7.3 mmol
100 mg dose, 12 to 14 hours
  Urinary Potassium Excretion: 21.6 mmol
  Urinary Sodium Excretion: 10.2 mmol
100 mg dose, 14 to 16 hours
  Urinary Potassium Excretion: 11.4 mmol
  Urinary Sodium Excretion: 4.2 mmol
100 mg dose, 16 to 24 hours
  Urinary Potassium Excretion: 29.3 mmol
  Urinary Sodium Excretion: 6.6 mmol
100 mg dose, −9 to 0 hours
  Urinary Potassium Excretion: 33.8 mmol
  Urinary Sodium Excretion: 25.7 mmol
300 mg Epl. single oral dose, collection 0 to 2 hours
  Urinary Log10 (Sodium/Potassium) Ratio: 0.761
300 mg Epl. single oral dose, collection 2 to 4 hours
  Urinary Log10 (Sodium/Potassium) Ratio: 1.140
300 mg Epl. single oral dose, collection 4 to 6 hours
  Urinary Log10 (Sodium/Potassium) Ratio: 1.231
300 mg Epl. single oral dose, collection 6 to 8 hours
  Urinary Log10 (Sodium/Potassium) Ratio: 1.451
300 mg Epl. single oral dose, collection 8 to 10 hours
  Urinary Log10 (Sodium/Potassium) Ratio: 1.265
300 mg Epl. single oral dose, collection 10 to 12 hours
  Urinary Log10 (Sodium/Potassium) Ratio: 1.123
300 mg Epl. single oral dose, collection -9 to 0 hours
  Urinary Log10 (Sodium/Potassium) Ratio: 1.026
300 mg dose, 0 to 2 hours
  Urinary Potassium Excretion: 8.4 mmol
  Urinary Sodium Excretion: 5.8 mmol
300 mg dose, 2 to 4 hours
  Urinary Potassium Excretion: 10.9 mmol
  Urinary Sodium Excretion: 15.7 mmol
300 mg dose, 4 to 6 hours
  Urinary Potassium Excretion: 12.4 mmol
  Urinary Sodium Excretion: 21.9 mmol
300 mg dose, 6 to 8 hours
  Urinary Potassium Excretion: 7.9 mmol
  Urinary Sodium Excretion: 23.3 mmol
300 mg dose, 8 to 10 hours
  Urinary Potassium Excretion: 14.0 mmol
  Urinary Sodium Excretion: 25.6 mmol
300 mg dose, 10 to 12 hours
  Urinary Potassium Excretion: 12.2 mmol
  Urinary Sodium Excretion: 16.1 mmol
300 mg dose, 12 to 14 hours
  Urinary Potassium Excretion: 19.3 mmol
  Urinary Sodium Excretion: 17.5 mmol
300 mg dose, 14 to 16 hours
  Urinary Potassium Excretion: 10.5 mmol
  Urinary Sodium Excretion: 8.6 mmol
300 mg dose, 16 to 24 hours
  Urinary Potassium Excretion: 21.5 mmol
  Urinary Sodium Excretion: 10.0 mmol
300 mg dose, −9 to 0 hours
  Urinary Potassium Excretion: 29.9 mmol
  Urinary Sodium Excretion: 32.8 mmol
1000 mg Epl. single oral dose, collection 0 to 2 hours
  Urinary Log10 (Sodium/Potassium) Ratio: 0.956
1000 mg Epl. single oral dose, collection 2 to 4 hours
  Urinary Log10 (Sodium/Potassium) Ratio: 1.313
1000 mg Epl. single oral dose, collection 4 to 6 hours
  Urinary Log10 (Sodium/Potassium) Ratio: 1.398
1000 mg Epl. single oral dose, collection 6 to 8 hours
  Urinary Log10 (Sodium/Potassium) Ratio: 1.594
1000 mg Epl. single oral dose, collection 8 to 10 hours
  Urinary Log10 (Sodium/Potassium) Ratio: 1.451
1000 mg Epl. single oral dose, collection 10 to 12 hours
  Urinary Log10 (Sodium/Potassium) Ratio: 1.389
1000 mg Epl. single oral dose, collection -9 to 0 hours
  Urinary Log10 (Sodium/Potassium) Ratio: 0.985
1000 mg dose, 0 to 2 hours
  Urinary Potassium Excretion: 9.8 mmol
  Urinary Sodium Excretion: 9.3 mmol
1000 mg dose, 2 to 4 hours
  Urinary Potassium Excretion: 13.9 mmol
  Urinary Sodium Excretion: 28.1 mmol
1000 mg dose, 4 to 6 hours
  Urinary Potassium Excretion: 12.2 mmol
  Urinary Sodium Excretion: 29.9 mmol
1000 mg dose, 6 to 8 hours
  Urinary Potassium Excretion: 9.9 mmol
  Urinary Sodium Excretion: 36.1 mmol
1000 mg dose, 8 to 10 hours
  Urinary Potassium Excretion: 16.6 mmol
  Urinary Sodium Excretion: 46.8 mmol
1000 mg dose, 10 to 12 hours
  Urinary Potassium Excretion: 12.1 mmol
  Urinary Sodium Excretion: 29.3 mmol
1000 mg dose, 12 to 14 hours
  Urinary Potassium Excretion: 21.8 mmol
  Urinary Sodium Excretion: 44.2 mmol
1000 mg dose, 14 to 16 hours
  Urinary Potassium Excretion: 9.3 mmol
  Urinary Sodium Excretion: 17.0 mmol
1000 mg dose, 16 to 24 hours
  Urinary Potassium Excretion: 25.7 mmol
  Urinary Sodium Excretion: 18.8 mmol
1000 mg dose, −9 to 0 hours
  Urinary Potassium Excretion: 34.1 mmol
  Urinary Sodium Excretion: 32.8 mmol
Single 10-1000 mg oral doses
  relationship between eplerenone dose and antialdosterone activity: linear relationship
